In article PMC9243000 (Cell Discovery, 2022):
Positions of bridges follow the written chain, without caps; N, C: chain ends. Chains are numbered I, II in the order given. No end group written: not given here.

Columns and labels:
[1] = system: Omicron variant (B.1.1.529); experiment: Post-exposure antiviral assay in hamsters, Omicron; format: in vivo
[2] = system: SARS-CoV-2 (B.1.1.63, D614G); format: cell-based
SARS-CoV-2 Delta variant = settings: 18 h
SARS-CoV-2 Alpha variant = settings: 18 h
SARS-CoV-2 Beta variant = settings: 18 h

Which results are given for “I: GAICHPVFCPRRYKQIGTCGLPGTKCCKKPKK / II: GAICHPVFCPRRYKQIGTCGLPGTKCCKKPK / III: GAICHPVFCPRRYKQIGTCGLPGTKCCKKP / IV: GAICHPVFCPRRYKQIGTCGLPGTKCCKKP (amide I:31-IV:C, I:32-II:C, II:31-III:C; cysteines drawn unpaired) [4H30]”?
Omicron variant titers in the nasal wash ([1]; […], plaque assay, n = 4): significantly reduce; inhibition of Omicron replication in hamster lungs ([1]; hamster, in vivo): more than 20 fold; inhibition of SARS-CoV-2 replication when added at 6 hpi [2]: significantly inhibit; IC50 (SARS-CoV-2 Delta variant): 0.79 µg/mL; IC50 (SARS-CoV-2 Alpha variant): 0.75 µg/mL; IC50 (SARS-CoV-2 Beta variant): 0.89 µg/mL
